What is called Km is the substrate concentration at which the rate is half of its maximum.

The results in this text go back to patent publication US6313161A, “2,19-methyleneoxy and 2,19-methylenethio bridged steroids as aromatase, 19-hydroxylase inhibitors and methods of their use in the treatment of estrogen mediated disorders” (Merrell Pharmaceuticals Inc., priority 1999, dated 2001).

Data set [1] has as its system DMBA-induced mammary tumors. Nature of the data set: DMBA induced mammary tumor growth. Format: in vivo, rat. As to conditions: 15 mg/kg/day sc osmotic pump, 42 days. Here is the method: The compounds of the present invention were also tested for the inhibition of tumor growth. Tumor growth inhibition was tested by the treatment of 50-day old female rats with the carcinogen, 7,12-dimethylbenz[a]anthracene[DMBA] and subsequently evaluated for tumor growth and/or remission (Huggins, C. et al., Nature 189:204, 1961; Russo, J. et al., Lab. Investigation 62: 244, 1990). Rats with DMBA-induced mammary tumors (≈[…]) were assigned to the following treatment groups: (1) Non-treated controls, (2) animals with subcutaneous implanted osmotic pump containing vehicle (DMSO/PEG200, 1:4 v/v), and (3) animals with subcutaneous implanted osmotic pump containing vehicle and 15 mg/kg/day of 2,19-(methyleneoxy) androst-4-ene-3,17-dione. Drug-treated animals also received 15 mg/kg/day via subcutaneous injections for the first two days of treatment as a priming dose. Tumor size was monitored for 42 days of drug treatment.

A further data set concerns intratumor aromatase. Nature of the data set: Inhibition of intratumor aromatase activity (estrogen formed). The class given is in vivo. The text has this: According to the method of Johnston, J. O. et al., J. Steroid Biochem., 33:521, 1989, which is herein incorporated by reference, the compounds of the present invention were further evaluated for their effect upon intratumor aromatase activity.

The target in another data set is T1, aromatase (Homo sapiens, UniProt P11511).
T1 sequence (P11511 1-503): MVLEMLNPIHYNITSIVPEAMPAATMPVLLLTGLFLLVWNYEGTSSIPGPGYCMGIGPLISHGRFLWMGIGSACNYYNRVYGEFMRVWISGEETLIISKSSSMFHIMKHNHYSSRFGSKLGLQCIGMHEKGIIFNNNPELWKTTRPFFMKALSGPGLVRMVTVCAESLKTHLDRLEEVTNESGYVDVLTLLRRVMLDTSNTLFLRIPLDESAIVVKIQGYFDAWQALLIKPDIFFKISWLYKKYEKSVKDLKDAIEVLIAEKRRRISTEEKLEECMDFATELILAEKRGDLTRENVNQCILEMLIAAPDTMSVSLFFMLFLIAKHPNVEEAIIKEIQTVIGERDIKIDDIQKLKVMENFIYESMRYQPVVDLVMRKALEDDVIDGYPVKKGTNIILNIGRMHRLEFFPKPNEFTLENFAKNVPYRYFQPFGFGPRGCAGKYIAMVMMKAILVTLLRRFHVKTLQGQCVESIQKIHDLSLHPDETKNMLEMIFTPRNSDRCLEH
Nature of the data set: Time-dependent aromatase inhibition assay (Kitz-Wilson kinetics). As to conditions: 25° C., Kitz-Wilson plots; for KI (inactivation): read-out: apparent Ki of inactivation, inhibitor concentration for half-maximal rate of enzyme inactivation. Here is the method:
In this assay, the inhibitor is preincubated with enzyme prior to assaying for activity in the presence of high substrate levels. A time-related decrease in enzyme activity can be indicative of irreversible binding of the inhibitor with the enzyme.
In the time-dependent assay, an amount of the enzyme inhibitor in 100 μl of the assay buffer described above which will provide assay concentrations which are usually between 1 nM and 10 μM are added to 35 ml centrifuge tubes containing 600 μl of the NADPH generating system. The preincubation is started by the addition of 700 μl of aromatase preparation, usually 500-800 μg of microsomal protein per ml of assay buffer. These preparations are mixed using a vortex mixer and incubated for 0, 10, 20, or 40 minutes at 25° C. […] Following vortexing, the enzyme incubation is continued for 10 minutes before being terminated by the addition of chloroform. The amount of radioactivity in the aqueous fraction is determined by scintillation procedures. The enzymatic activity for each concentration of inhibitor at each time period of preincubation is calculated as a percent of the "0" minute vehicle control arbitrarily set at 100%. Therefore, the present enzyme inhibition is expressed as a percentage: (100 percent minus percent enzyme activity with inhibitor present).
Enzyme kinetic analysis utilized Kitz-Wilson plots for time-dependent assays. These analyses provide estimates of apparent Ki of inactivation which represents the inhibitor concentration required to produce half-maximal rate of enzyme inactivation. The pseudo first-order rate constant for enzyme inactivation (kcat) and the half-time of inactivation (.tau.50) of infinite inhibitor concentrations were determined.

Substrate in data set [2]: C[C@]12CCC(=O)C=C1CC[C@@H]1[C@@H]2CC[C@]2(C)C(=O)CC[C@@H]12
Nature of the data set: purified protein, by the assay type. As to conditions: other: substrate of aromatase; 25.0 °C.

Take `C[C@]12CC[C@H]3[C@@H](CCC4=CC(=O)[C@H]5COC[C@]43C5)[C@@H]1CCC2=O` [2,19-(methyleneoxy)androst-4-ene-3,17-dione]: in data set [1] (50 to 150% of original tumor volume, controls 6.7), the “percent of animals with no change” value is listed as 14.3% of animals. Besides, the “percent of animals with partial tumor regression” value in data set [1] (<50% of original tumor volume, controls 6.7) was 42.9% of animals. The “percent of animals with tumor progression” value in data set [1] (>150% of original tumor volume, controls 80.0) is given as 28.6% of animals. The “percent of animals with complete tumor regression” value in data set [1] (Complete (0%), controls 6.7) is 14.3% of animals. Further, the “% Inhibition of intratumor aromatase activity” value is 70 ± 5% with intratumor aromatase (3 mg/kg intraveneous, 2 hours post treatment); 41 ± 4% in the data set on intratumor aromatase (3 mg/kg intraveneous, 4 hours post treatment); 37 ± 3% in the data set with intratumor aromatase (3 mg/kg intraveneous, 6 hours post treatment); 72 ± 5% with intratumor aromatase (3 mg/kg oral, 2 hours post treatment); 64 ± 4% with intratumor aromatase (3 mg/kg oral, 4 hours post treatment); 63 ± 5% in the data set with intratumor aromatase (3 mg/kg oral, 6 hours post treatment). Besides, the “% Inhibition of intratumor aromatase activity” value is given as 44 ± 5% in the data set with intratumor aromatase (3 mg/kg subcutaneous, 2 hours post treatment); 45 ± 32% in the data set on intratumor aromatase (3 mg/kg subcutaneous, 4 hours post treatment); 35 ± 7% in the data set with intratumor aromatase (3 mg/kg subcutaneous, 6 hours post treatment). Further, the “Estrogen formed, absolute level” value is 88 ± 15 picomoles/gram of tumor/hour in the data set with intratumor aromatase (3 mg/kg intraveneous, 2 hours post treatment, vehicle control 294 ± 5); 175 ± 12 picomoles/gram of tumor/hour in the data set on intratumor aromatase (3 mg/kg intraveneous, 4 hours post treatment, vehicle control 294 ± 5); 186 ± 9 picomoles/gram of tumor/hour with intratumor aromatase (3 mg/kg intraveneous, 6 hours post treatment, vehicle control 294 ± 5); 49 ± 8 picomoles/gram of tumor/hour in the data set with intratumor aromatase (3 mg/kg oral, 2 hours post treatment, vehicle control 173 ± 9); 62 ± 7 picomoles/gram of tumor/hour in the data set with intratumor aromatase (3 mg/kg oral, 4 hours post treatment, vehicle control 173 ± 9); 64 ± 9 picomoles/gram of tumor/hour with intratumor aromatase (3 mg/kg oral, 6 hours post treatment, vehicle control 173 ± 9). Also, the “Estrogen formed, absolute level” value in the data set on intratumor aromatase (3 mg/kg subcutaneous, 2 hours post treatment, vehicle control 121 ± 85) is reported as 68 ± 6 picomoles/gram of tumor/hour; in the data set on intratumor aromatase (3 mg/kg subcutaneous, 4 hours post treatment, vehicle control 121 ± 85) it was 67 ± 3 picomoles/gram of tumor/hour; with intratumor aromatase (3 mg/kg subcutaneous, 6 hours post treatment, vehicle control 121 ± 85), 78 ± 9 picomoles/gram of tumor/hour. Also, on aromatase, the “.tau.50 (half-time of inactivation at infinite inhibitor concentration)” value worked out at 2.86 min. Further, the KI (inactivation) on aromatase was found to be 17.6 nM.

With `C[C@]12CC[C@H]3[C@@H](C=CC4=CC(=O)[C@H]5COC[C@]43C5)[C@@H]1CCC2=O` [2,19-(methyleneoxy)androsta-4,6-diene-3,17-dione], at aromatase, the “.tau.50 (half-time of inactivation at infinite inhibitor concentration)” value is listed as 2.82 min and the KI (inactivation) stood at 21.6 nM.

Turning to `C[C@]12CC[C@H]3[C@@H](CCC4=CC(=O)[C@H]5CSC[C@]43C5)[C@@H]1CCC2=O` [2,19-(methylenethio)androst-4-ene-3,17-dione], at aromatase, the “.tau.50 (half-time of inactivation at infinite inhibitor concentration)” value was 1.65 min and the KI (inactivation) was 53 nM.

B1: aromatase (Homo sapiens) (protein)
chain: MVLEMLNPIHYNITSIVPEAMPAATMPVLLLTGLFLLVWNYEGTSSIPGPGYCMGIGPLISHGRFLWMGIGSACNYYNRVYGEFMRVWISGEETLIISKSSSMFHIMKHNHYSSRFGSKLGLQCIGMHEKGIIFNNNPELWKTTRPFFMKALSGPGLVRMVTVCAESLKTHLDRLEEVTNESGYVDVLTLLRRVMLDTSNTLFLRIPLDESAIVVKIQGYFDAWQALLIKPDIFFKISWLYKKYEKSVKDLKDAIEVLIAEKRRRISTEEKLEECMDFATELILAEKRGDLTRENVNQCILEMLIAAPDTMSVSLFFMLFLIAKHPNVEEAIIKEIQTVIGERDIKIDDIQKLKVMENFIYESMRYQPVVDLVMRKALEDDVIDGYPVKKGTNIILNIGRMHRLEFFPKPNEFTLENFAKNVPYRYFQPFGFGPRGCAGKYIAMVMMKAILVTLLRRFHVKTLQGQCVESIQKIHDLSLHPDETKNMLEMIFTPRNSDRCLEH
B1: the Km in data set [2] came to 0.04 µM.
